# Experimental data reported in PubChem BioAssay (NCI).
#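 A five-concentration, 48-hour dose response in 96-well plates underlies each endpoint, interpolated linearly between surrounding concentrations. GI50 marks 50% less growth. TGI denotes the concentration required for complete inhibition of growth.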
# Legend:
# Assay in all cases: NCI-60 cell line screen, 48 h
# EKVX NSCLC = test system: EKVX NSCLC
# HT29 colon = test system: HT29 colon
# LOX IMVI melanoma = test system: LOX IMVI melanoma
# NCI-H23 lung = test system: NCI-H23 lung
# NCI-H460 lung = test system: NCI-H460 lung
# SK-MEL-5 melanoma = test system: SK-MEL-5 melanoma
# SK-OV-3 ovarian = test system: SK-OV-3 ovarian
# DU-145 prostate = test system: DU-145 prostate
# HS 578T breast = test system: HS 578T breast
# RPMI-8226 leukemia = test system: RPMI-8226 leukemia
Compound,TGI (EKVX NSCLC),TGI (HT29 colon),TGI (LOX IMVI melanoma),TGI (NCI-H23 lung),TGI (NCI-H460 lung),TGI (SK-MEL-5 melanoma),TGI (SK-OV-3 ovarian),GI50 (DU-145 prostate),TGI (DU-145 prostate),GI50 (EKVX NSCLC),GI50 (HS 578T breast),TGI (HS 578T breast),GI50 (HT29 colon),GI50 (LOX IMVI melanoma),GI50 (NCI-H23 lung),GI50 (NCI-H460 lung),GI50 (RPMI-8226 leukemia),TGI (RPMI-8226 leukemia),GI50 (SK-MEL-5 melanoma),GI50 (SK-OV-3 ovarian)
Cc1ccc(/C=C/C(=O)c2ccc([N+](=O)[O-])cc2)cc1,> 100 µM,> 100 µM,> 100 µM,99.8 µM,> 100 µM,> 100 µM,> 100 µM,–,–,–,–,–,–,–,–,–,–,–,–,–
O=C(c1ccco1)c1nc2cc(C(F)(F)F)ccc2[n+]([O-])c1C(F)(F)F,> 100 µM,> 100 µM,> 100 µM,> 100 µM,> 100 µM,> 100 µM,> 100 µM,61.7 µM,> 100 µM,34 µM,51.9 µM,> 100 µM,33.6 µM,40.1 µM,35.6 µM,61 µM,20.3 µM,> 100 µM,33.3 µM,> 100 µM
O=C1CCSC(=S)N1c1ccc(Br)c(Cl)c1,> 100 µM,33.8 µM,50.4 µM,> 100 µM,62.5 µM,35.9 µM,91.5 µM,–,> 100 µM,–,–,> 100 µM,–,–,–,–,–,> 100 µM,–,–
C=C1CCC2C(C)(CO)C(O)CCC2(C)C1C/C=C1/CCOC1=O (stereo not drawn),> 100 µM,> 100 µM,> 100 µM,> 100 µM,> 100 µM,> 100 µM,> 100 µM,–,–,–,–,–,–,–,–,–,–,> 100 µM,–,–
Cc1cc(NCc2cc(Nc3ccnc4cc(Cl)ccc34)ccc2F)nc(N2CCSCC2)n1,83.9 µM,4.37 µM,2.79 µM,5.24 µM,–,2.94 µM,3.64 µM,3.31 µM,15.7 µM,2.8 µM,1.77 µM,4.98 µM,1.77 µM,1.47 µM,1.78 µM,–,1.42 µM,3.96 µM,1.53 µM,1.82 µM
COc1ccc(-c2nnc(SCC(=O)Nc3ccc(C(=O)/C=C/c4cc(OC)c(OC)c(OC)c4)cc3)n2-c2ccccc2)cc1OC,–,> 10 µM,4.87 µM,> 10 µM,> 10 µM,> 10 µM,> 10 µM,3.86 µM,> 10 µM,–,–,–,2.07 µM,1.74 µM,8.27 µM,8.54 µM,0.387 µM,5.73 µM,7.79 µM,6.06 µM
COc1ccc(N=Nc2c(-c3ccccc3)nn(C(=O)CC(=O)Nc3ccccc3Cl)c2-c2ccccc2)cc1,> 100 µM,> 100 µM,> 100 µM,> 100 µM,> 100 µM,> 100 µM,–,–,–,–,–,–,–,–,–,–,–,–,–,–
Cc1cccc(C(C)C)c1NC(=O)CCl,53.2 µM,> 100 µM,> 100 µM,80 µM,> 100 µM,> 100 µM,> 100 µM,–,–,–,–,–,–,–,–,–,–,> 100 µM,–,–
CC(C)CN1CC(C)C(=O)NC1=O (stereo not drawn),> 100 µM,> 100 µM,> 100 µM,> 100 µM,> 100 µM,> 100 µM,> 100 µM,–,–,–,–,–,–,–,–,–,–,–,–,–
CN(C)C(=S)/N=c1\ss/c(=N\C(=S)N(C)C)n1Cc1ccco1,–,–,–,–,> 100 µM,> 100 µM,> 100 µM,–,–,–,–,–,–,–,–,–,–,> 100 µM,–,–
COc1ccc(OC(C)C(=O)O)c2c1CCCC2=O (stereo not drawn),> 100 µM,> 100 µM,> 100 µM,> 100 µM,> 100 µM,> 100 µM,> 100 µM,–,–,–,–,–,–,–,–,–,–,> 100 µM,–,–
CC(=O)Nc1ccc(-c2csc(Nc3cccc(-c4csc(-c5ccccc5)n4)c3)n2)cc1,> 50 µM,–,18.1 µM,> 50 µM,> 50 µM,> 50 µM,> 50 µM,22.2 µM,> 50 µM,20.2 µM,37.2 µM,> 50 µM,–,7.71 µM,16.5 µM,18.8 µM,19.4 µM,> 50 µM,18.7 µM,> 50 µM
COc1ccc(-c2nc(-c3ccccn3)c(-c3ccccn3)n2CC(C)C)cc1OC1CCCC1,–,134 µM,110 µM,> 165 µM,99.7 µM,38.4 µM,116 µM,23.3 µM,> 165 µM,–,9.71 µM,79.4 µM,35.3 µM,26.1 µM,28.5 µM,32.1 µM,27.4 µM,80.5 µM,11.4 µM,27.6 µM
CCOC(=O)C(=O)Nc1ccccc1OCC,> 100 µM,> 100 µM,> 100 µM,> 100 µM,> 100 µM,> 100 µM,> 100 µM,–,–,–,–,–,–,–,–,–,–,> 100 µM,–,–
OCC(O)COc1c(Cl)cc(Cl)cc1Cl (stereo not drawn),> 100 µM,> 100 µM,> 74.1 µM,> 100 µM,> 100 µM,> 100 µM,> 100 µM,–,–,–,–,–,–,–,–,–,–,> 64.6 µM,–,–
O=C1CCCC(O)=C1SC1=C(O)CCCC1=O,> 100 µM,> 100 µM,> 100 µM,> 100 µM,–,> 100 µM,> 100 µM,–,–,–,–,–,–,–,–,–,–,> 100 µM,–,–
O=C1CC(c2ccsc2)c2snc(-c3ccc(Cl)cc3)c2N1 (stereo not drawn),–,> 100 µM,> 100 µM,> 100 µM,> 100 µM,2.4 µM,12 µM,2.68 µM,> 100 µM,–,2.59 µM,> 100 µM,0.4 µM,1 µM,1.76 µM,0.581 µM,0.6 µM,5.44 µM,0.404 µM,2.17 µM
O=c1ccn(C2(CO)C=C(CO)C(O)C2O)c(=O)[nH]1 (stereo not drawn),> 25.7 µM,–,–,–,> 25.7 µM,> 25.7 µM,> 25.7 µM,–,–,–,–,–,–,–,–,–,–,> 25.7 µM,–,–
Clc1ccc2nc(Cl)c3ccccc3c2c1,–,> 100 µM,> 100 µM,> 100 µM,11.8 µM,> 100 µM,21.2 µM,58.5 µM,> 100 µM,–,8.21 µM,72 µM,19.9 µM,20.9 µM,74.9 µM,3.29 µM,–,–,> 100 µM,5.17 µM
CCC(C)c1cccc(C)c1NC(=O)C(=O)Cc1nc2ccccc2s1 (stereo not drawn),> 100 µM,> 100 µM,> 100 µM,> 100 µM,> 100 µM,> 100 µM,> 100 µM,–,–,–,–,–,–,–,–,–,–,> 100 µM,–,–
